Results on one compound are retold here after patent US9757388B2 (Acerus Pharmaceuticals SRL, priority 2011, dated 2017).

The structures appear in SMILES notation.

The conditions of the series: drug substance.

As for `C[C@]12CC[C@H]3[C@@H](CCC4=CC(=O)CC[C@@]43C)[C@@H]1CC[C@@H]2O` [Testosterone, 17β-Hydroxyandrost-4-en-3-one], the Stability in air entry was “powder. It is odourless, and stable in air”.
